Measurements from patent publication US10717716B2, “1,3,4-oxadiazole derivative compounds as histone deacetylase 6 inhibitor, and the pharmaceutical composition comprising the same” (Chong Kun Dang Pharmaceutical Corp., priority 2015, dated 2020).
pIC50: −log10 of the molar value. Values belong to the compound of their own block, whether it stands above or below them.

Target: T1, human recombinant HDAC6 (Homo sapiens, UniProt Q9UBN7)
T1 construct: purchased Calbiochem 382180
T1 sequence (Q9UBN7 1-1215): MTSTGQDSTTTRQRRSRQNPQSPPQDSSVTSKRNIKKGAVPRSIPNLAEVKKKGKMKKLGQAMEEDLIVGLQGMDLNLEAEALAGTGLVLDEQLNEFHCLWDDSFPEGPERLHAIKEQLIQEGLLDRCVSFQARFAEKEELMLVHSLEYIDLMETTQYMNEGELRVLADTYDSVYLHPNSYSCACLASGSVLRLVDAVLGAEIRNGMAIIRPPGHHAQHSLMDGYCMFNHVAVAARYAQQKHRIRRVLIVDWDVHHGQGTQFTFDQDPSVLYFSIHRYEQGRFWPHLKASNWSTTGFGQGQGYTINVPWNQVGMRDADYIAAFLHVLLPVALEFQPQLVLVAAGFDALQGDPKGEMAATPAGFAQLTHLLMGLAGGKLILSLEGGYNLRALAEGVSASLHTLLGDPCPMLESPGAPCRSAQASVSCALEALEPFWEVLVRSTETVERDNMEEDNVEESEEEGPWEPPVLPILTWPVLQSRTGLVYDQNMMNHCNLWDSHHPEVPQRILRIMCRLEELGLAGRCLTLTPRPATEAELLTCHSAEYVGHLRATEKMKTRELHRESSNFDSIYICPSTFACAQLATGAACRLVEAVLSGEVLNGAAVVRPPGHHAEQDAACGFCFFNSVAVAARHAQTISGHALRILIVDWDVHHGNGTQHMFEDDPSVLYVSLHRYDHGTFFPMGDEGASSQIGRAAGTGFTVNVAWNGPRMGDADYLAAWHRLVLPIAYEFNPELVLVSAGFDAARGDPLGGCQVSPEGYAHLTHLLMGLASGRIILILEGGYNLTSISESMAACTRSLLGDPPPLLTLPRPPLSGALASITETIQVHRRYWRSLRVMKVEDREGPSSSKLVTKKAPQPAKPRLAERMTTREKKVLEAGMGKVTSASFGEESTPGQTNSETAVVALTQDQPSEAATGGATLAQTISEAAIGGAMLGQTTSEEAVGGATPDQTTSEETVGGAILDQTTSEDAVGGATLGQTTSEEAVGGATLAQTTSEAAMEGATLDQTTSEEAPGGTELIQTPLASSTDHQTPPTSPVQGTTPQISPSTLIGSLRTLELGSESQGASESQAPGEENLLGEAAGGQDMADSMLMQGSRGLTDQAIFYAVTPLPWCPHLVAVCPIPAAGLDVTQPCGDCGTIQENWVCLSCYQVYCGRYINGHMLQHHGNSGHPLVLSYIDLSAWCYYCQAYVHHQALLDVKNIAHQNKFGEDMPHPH
Assay: HDAC6 enzyme activity inhibition assay (HDAC Fluorimetric Drug Discovery Kit)
Type: biochemical
Conditions: for HDAC6 selectivity (fold): HDAC6 over HDAC1; for pIC50: human recombinant HDAC6, same protocol as HDAC1, read-out: HDAC6
Summary of the method: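 Human recombinant HDAC1 or HDAC6 (0.3 μg) reacted with 10 μM Fluor de Lys-SIRT1 substrate and 5-fold compound dilutions for 60 min at 30 °C. Developer II added for 30 min, fluorescence read at Ex 360/Em 460; IC50 calculated from the readings.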

Structure (SMILES): O=C(N1CCS(=O)(=O)CC1)N(Cc1ccc(-c2nnc(C(F)(F)F)o2)cc1)c1cccc(C(F)(F)F)n1 [Compound 21456, N-(4-(5-(trifluoromethyl)-1,3,4-oxadiazol-2-yl)benzyl)-N-(6-(trifluoromethyl)pyridin-2-yl)thiomorpholine-4-carboxamide 1,1-dioxide]
HDAC6 selectivity (fold): 17 fold
pIC50: 6.24

Structure (SMILES): CC(C)(C)c1ccc(N(Cc2ccc(-c3nnc(C(F)(F)F)o3)cc2)C(=O)N2CCS(=O)(=O)CC2)cc1 [Compound 21458, N-(4-(tert-butyl)phenyl)-N-(4-(5-(trifluoromethyl)-1,3,4-oxadiazol-2-yl)benzyl)thiomorpholine-4-carboxamide 1,1-dioxide]
HDAC6 selectivity (fold): 1 fold

Structure (SMILES): CC(C)(C)c1ccc(N(Cc2ccc(-c3nnc(C(F)(F)F)o3)cc2F)C(=O)N2CCS(=O)(=O)CC2)cc1 [Compound 21460, N-(4-(tert-butyl)phenyl)-N-(2-fluoro-4-(5-(trifluoromethyl)-1,3,4-oxadiazol-2-yl)benzyl)thiomorpholine-4-carboxamide 1,1-dioxide]
HDAC6 selectivity (fold): 1 fold

Structure (SMILES): O=C(N1CCOCC1)N(Cc1ccccc1)Cc1ccc(-c2nnc(C(F)(F)F)o2)cc1 [Compound 21462, N-benzyl-N-(4-(5-(trifluoromethyl)-1,3,4-oxadiazol-2-yl)benzyl)morpholine-4-carboxamide]
HDAC6 selectivity (fold): 7 fold
pIC50: 5.85

Structure (SMILES): O=C(N1CCOCC1)N(Cc1ccc(-c2nnc(C(F)(F)F)o2)cc1)Cc1cccnc1 [Compound 21463, N-(pyridin-3-ylmethyl)-N-(4-(5-(trifluoromethyl)-1,3,4-oxadiazol-2-yl)benzyl)morpholine-4-carboxamide]
HDAC6 selectivity (fold): 2 fold
pIC50: 5.34

Structure (SMILES): O=C(N1CCOCC1)N(Cc1ccncc1)Cc1ccc(-c2nnc(C(F)(F)F)o2)cc1 [Compound 21464, N-(pyridin-4-ylmethyl)-N-(4-(5-(trifluoromethyl)-1,3,4-oxadiazol-2-yl)benzyl)morpholine-4-carboxamide]
HDAC6 selectivity (fold): 6 fold
pIC50: 5.76

Structure (SMILES): CN1CCN(C(=O)N(Cc2ccc(-c3nnc(C(F)F)o3)cc2F)c2cccc(Br)c2)CC1 [Compound 21465, N-(3-bromophenyl)-N-(4-(5-(difluoromethyl)-1,3,4-oxadiazol-2-yl)-2-fluorobenzyl)-4-methylpiperazine-1-carboxamide]
HDAC6 selectivity (fold): 333 fold
pIC50: 7.52

Structure (SMILES): CN1CCN(C(=O)N(Cc2ccc(-c3nnc(C(F)F)o3)cc2F)c2ccc(Br)cc2)CC1 [Compound 21466, N-(4-bromophenyl)-N-(4-(5-(difluoromethyl)-1,3,4-oxadiazol-2-yl)-2-fluorobenzyl)-4-methylpiperazine-1-carboxamide]
HDAC6 selectivity (fold): 128 fold
pIC50: 7.11

Structure (SMILES): CN1CCN(C(=O)N(Cc2ccc(-c3nnc(C(F)F)o3)cc2F)c2cccc(Cl)c2)CC1 [Compound 21467, N-(3-chlorophenyl)-N-(4-(5-(difluoromethyl)-1,3,4-oxadiazol-2-yl)-2-fluorobenzyl)-4-methylpiperazine-1-carboxamide]
HDAC6 selectivity (fold): 323 fold
pIC50: 7.51

Structure (SMILES): CN1CCN(C(=O)N(Cc2ccc(-c3nnc(C(F)F)o3)cc2F)c2ccc(Cl)cc2)CC1 [Compound 21468, N-(4-chlorophenyl)-N-(4-(5-(difluoromethyl)-1,3,4-oxadiazol-2-yl)-2-fluorobenzyl)-4-methylpiperazine-1-carboxamide]
HDAC6 selectivity (fold): 159 fold
pIC50: 7.20

Structure (SMILES): Cc1ccccc1N(Cc1ccc(-c2nnc(C(F)F)o2)cc1F)C(=O)N1CCN(C)CC1 [Compound 21469, N-(4-(5-(difluoromethyl)-1,3,4-oxadiazol-2-yl)-2-fluorobenzyl)-4-methyl-N-(o-tolyl)piperazine-1-carboxamide]
HDAC6 selectivity (fold): 244 fold
pIC50: 7.39

Structure (SMILES): Cc1cccc(N(Cc2ccc(-c3nnc(C(F)F)o3)cc2F)C(=O)N2CCN(C)CC2)c1 [Compound 21470, N-(4-(5-(difluoromethyl)-1,3,4-oxadiazol-2-yl)-2-fluorobenzyl)-4-methyl-N-(m-tolyl)piperazine-1-carboxamide]
HDAC6 selectivity (fold): 313 fold
pIC50: 7.49

Structure (SMILES): Cc1ccc(N(Cc2ccc(-c3nnc(C(F)F)o3)cc2F)C(=O)N2CCN(C)CC2)cc1 [Compound 21471, N-(4-(5-(difluoromethyl)-1,3,4-oxadiazol-2-yl)-2-fluorobenzyl)-4-methyl-N-(p-tolyl)piperazine-1-carboxamide]
HDAC6 selectivity (fold): 213 fold
pIC50: 7.33

Structure (SMILES): COc1cccc(N(Cc2ccc(-c3nnc(C(F)F)o3)cc2F)C(=O)N2CCN(C)CC2)c1 [Compound 21473, N-(4-(5-(difluoromethyl)-1,3,4-oxadiazol-2-yl)-2-fluorobenzyl)-N-(3-methoxyphenyl)-4-methylpiperazine-1-carboxamide]
HDAC6 selectivity (fold): 313 fold
pIC50: 7.49

Structure (SMILES): COc1ccc(N(Cc2ccc(-c3nnc(C(F)(F)F)o3)cc2F)C(=O)N2CCS(=O)(=O)CC2)cc1 [Compound 21477, N-(2-fluoro-4-(5-(trifluoromethyl)-1,3,4-oxadiazol-2-yl)benzyl)-N-(4-methoxyphenyl)thiomorpholine-4-carboxamide 1,1-dioxide]
HDAC6 selectivity (fold): 137 fold
pIC50: 7.14

Next, values leading:

HDAC6 selectivity (fold): 294 fold
pIC50: 7.47
Structure (SMILES): COc1ccc(N(Cc2ccc(-c3nnc(C(F)F)o3)cn2)C(=O)N2CCS(=O)(=O)CC2)cc1 [Compound 21455, N-((5-(5-(difluoromethyl)-1,3,4-oxadiazol-2-yl)pyridin-2-yl)methyl)-N-(4-methoxyphenyl)thiomorpholine-4-carboxamide 1,1-dioxide]

HDAC6 selectivity (fold): 53 fold
pIC50: 6.72
Structure (SMILES): O=C(N1CCS(=O)(=O)CC1)N(Cc1ccc(-c2nnc(C(F)F)o2)cc1)c1cccc(C(F)(F)F)n1 [Compound 21457, N-(4-(5-(difluoromethyl)-1,3,4-oxadiazol-2-yl)benzyl)-N-(6-(trifluoromethyl)pyridin-2-yl)thiomorpholine-4-carboxamide 1,1-dioxide]

HDAC6 selectivity (fold): 1 fold
Structure (SMILES): CC(C)(C)c1ccc(N(Cc2ccc(-c3nnc(C(F)F)o3)cc2)C(=O)N2CCS(=O)(=O)CC2)cc1 [Compound 21459, N-(4-(tert-butyl)phenyl)-N-(4-(5-(difluoromethyl)-1,3,4-oxadiazol-2-yl)benzyl)thiomorpholine-4-carboxamide 1,1-dioxide]

HDAC6 selectivity (fold): 14 fold
pIC50: 6.14
Structure (SMILES): CC(C)(C)c1ccc(N(Cc2ccc(-c3nnc(C(F)F)o3)cc2F)C(=O)N2CCS(=O)(=O)CC2)cc1 [Compound 21461, N-(4-(tert-butyl)phenyl)-N-(4-(5-(difluoromethyl)-1,3,4-oxadiazol-2-yl)-2-fluorobenzyl)thiomorpholine-4-carboxamide 1,1-dioxide]

HDAC6 selectivity (fold): 217 fold
pIC50: 7.34
Structure (SMILES): COc1ccccc1N(Cc1ccc(-c2nnc(C(F)F)o2)cc1F)C(=O)N1CCN(C)CC1 [Compound 21472, N-(4-(5-(difluoromethyl)-1,3,4-oxadiazol-2-yl)-2-fluorobenzyl)-N-(2-methoxyphenyl)-4-methylpiperazine-1-carboxamide]

HDAC6 selectivity (fold): 77 fold
pIC50: 6.89
Structure (SMILES): COc1ccccc1N(Cc1ccc(-c2nnc(C(F)F)o2)cc1)C(=O)N1CCS(=O)(=O)CC1 [Compound 21474, N-(4-(5-(difluoromethyl)-1,3,4-oxadiazol-2-yl)benzyl)-N-(2-methoxyphenyl)thiomorpholine-4-carboxamide 1,1-dioxide]

HDAC6 selectivity (fold): 145 fold
pIC50: 7.16
Structure (SMILES): COc1cccc(N(Cc2ccc(-c3nnc(C(F)F)o3)cc2)C(=O)N2CCS(=O)(=O)CC2)c1 [Compound 21475, N-(4-(5-(difluoromethyl)-1,3,4-oxadiazol-2-yl)benzyl)-N-(3-methoxyphenyl)thiomorpholine-4-carboxamide 1,1-dioxide]

HDAC6 selectivity (fold): 196 fold
pIC50: 7.29
Structure (SMILES): Cc1cccc(N(Cc2ccc(-c3nnc(C(F)F)o3)cc2)C(=O)N2CCS(=O)(=O)CC2)c1 [Compound 21476, N-(4-(5-(difluoromethyl)-1,3,4-oxadiazol-2-yl)benzyl)-N-(m-tolyl)thiomorpholine-4-carboxamide 1,1-dioxide]
